Tested on: bed bugs
Assay: forced exposure toxicity test on treated filter paper circles
Format: in vivo, Cimex species
Details: compound diluted 5% in acetone, bed bug mortality at 24 hours
Experimental: Toxicity of compounds of structure (I) was determined by forced exposure testing under the following protocol. Five filter paper circles were laid on a flat surface and treated with the test compounds. Five replicates of five bed bugs were released onto each of the treated paper circles. Petri dish bottoms with circular openings were placed over the treated paper circles and served as the exposure arenas. The sides of the Petri dish bottoms were also painted with Fluon to prevent the bed bugs from climbing the sides. The bed bugs were thus confined to the treated paper circles for the duration of the test. Observations were made for mortality of the bed bugs at 24 hours.

| Compound | Mortality @ 24 hours |
| --- | --- |
| CCCC1CC(C)=CC(O)C1 (centres unmarked) [3-Methyl-5-propyl-2-cyclohexenol] | 60% |
| CCCC1CC(=O)C=C(C)C1 (centres unmarked) [3-Methyl-5-propyl-2-cyclohexenone] | 100% |
| CCC1CC(=O)C=C(C)C1 (centres unmarked) [3-Methyl-5-Ethyl-2-Cyclohexenone] | 78% |
| CCCCC1CC(=O)C=C(C)C1 (centres unmarked) [3-Methyl-5-Butyl-2-Cyclohexen-1-one] | 50% |
| CC1=CC(O)CC(CC(C)C)C1 (centres unmarked) [3-Methyl-5-Isobutyl-2-cyclohexenol] | 10% |

— patent US9512059B2, “Killing of bed bugs” (BEDOUKIAN RESEARCH, INC., priority 2012, dated 2016)
